Test results reported in publication PMC4300089, “Structure-Guided Design of Selective Epac1 and Epac2 Agonists” (PLoS Biology, 2015).

Legend:
Epac1 [1] = target: T1, Epac1 (Homo sapiens, UniProt O95398); assay: Cellular Epac activity: Rap•GTP levels in U2OS cells stably expressing Epac1; format: cell-based; details: for rel. RapGTP: relative to induction with forskolin and IBMX, Fig. 6C
T1 construct: pBabe-Flag-Epac1 (Epac1, homo sapiens, amino acids 1–881); expressed in transfected cells; host or cells: U2OS
T1 sequence (O95398 1-881 isoform O95398-3): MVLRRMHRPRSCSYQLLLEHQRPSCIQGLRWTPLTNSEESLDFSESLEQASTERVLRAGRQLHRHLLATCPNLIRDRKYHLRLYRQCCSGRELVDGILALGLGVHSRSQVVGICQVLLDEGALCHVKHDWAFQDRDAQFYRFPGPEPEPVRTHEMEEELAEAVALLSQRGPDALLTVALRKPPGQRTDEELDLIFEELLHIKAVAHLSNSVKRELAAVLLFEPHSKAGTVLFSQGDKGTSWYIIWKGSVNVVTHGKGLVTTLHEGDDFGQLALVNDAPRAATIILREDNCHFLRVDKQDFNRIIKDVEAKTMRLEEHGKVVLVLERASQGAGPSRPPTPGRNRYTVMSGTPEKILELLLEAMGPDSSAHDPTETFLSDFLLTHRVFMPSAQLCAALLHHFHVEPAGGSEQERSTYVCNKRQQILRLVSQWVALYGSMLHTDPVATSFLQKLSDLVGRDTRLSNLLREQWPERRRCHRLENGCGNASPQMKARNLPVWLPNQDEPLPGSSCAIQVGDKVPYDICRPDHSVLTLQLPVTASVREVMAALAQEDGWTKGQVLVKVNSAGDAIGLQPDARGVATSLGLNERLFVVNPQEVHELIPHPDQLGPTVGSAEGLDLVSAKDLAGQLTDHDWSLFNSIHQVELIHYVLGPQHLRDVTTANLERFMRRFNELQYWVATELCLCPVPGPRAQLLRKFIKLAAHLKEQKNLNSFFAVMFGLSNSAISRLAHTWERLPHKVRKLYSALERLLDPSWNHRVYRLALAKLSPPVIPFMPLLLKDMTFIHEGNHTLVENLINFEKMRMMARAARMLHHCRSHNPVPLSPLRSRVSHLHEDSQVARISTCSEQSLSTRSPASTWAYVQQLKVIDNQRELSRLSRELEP
Protocol: Rap•GTP levels were determined by precipitating GTP-bound Rap specifically from cell lysates and subsequent western Blotting with an α-Rap antibody (Santa Cruz Biotechnology). To generate stable cell lines, U2OS cells were transfected with pBabe-Flag-Epac1 (Epac1, homo sapiens, amino acids 1–881) or pBabe-Flag-Epac2 (Epac2, mus musculus, amino acids 1–993), selected for Epac expression and maintained under selection with 2 mg/l puromycin. The cells were cultured according to standard protocols. The activity of PKA was determined by western blotting with a monoclonal α-VASP antibody (BD Transduction Laboratories). Blots were developed by enhanced chemiluminescence (ECL) and the use of X-ray films; for quantification films were scanned. The intensities of the Rap•GTP bands and the upper band of VASP (P-VASP) were determined for each condition in ImageJ and normalized to the stimulation with forskolin and IBMX for each blot.

Epac1 [2] = target: T2, Epac1 (Homo sapiens, UniProt O95398); parameters: method as in PMID 12888551; details: footnote c, see also ref 13; cited from earlier work
T2 construct: made in house
T2 sequence (O95398 150-881 isoform O95398-3): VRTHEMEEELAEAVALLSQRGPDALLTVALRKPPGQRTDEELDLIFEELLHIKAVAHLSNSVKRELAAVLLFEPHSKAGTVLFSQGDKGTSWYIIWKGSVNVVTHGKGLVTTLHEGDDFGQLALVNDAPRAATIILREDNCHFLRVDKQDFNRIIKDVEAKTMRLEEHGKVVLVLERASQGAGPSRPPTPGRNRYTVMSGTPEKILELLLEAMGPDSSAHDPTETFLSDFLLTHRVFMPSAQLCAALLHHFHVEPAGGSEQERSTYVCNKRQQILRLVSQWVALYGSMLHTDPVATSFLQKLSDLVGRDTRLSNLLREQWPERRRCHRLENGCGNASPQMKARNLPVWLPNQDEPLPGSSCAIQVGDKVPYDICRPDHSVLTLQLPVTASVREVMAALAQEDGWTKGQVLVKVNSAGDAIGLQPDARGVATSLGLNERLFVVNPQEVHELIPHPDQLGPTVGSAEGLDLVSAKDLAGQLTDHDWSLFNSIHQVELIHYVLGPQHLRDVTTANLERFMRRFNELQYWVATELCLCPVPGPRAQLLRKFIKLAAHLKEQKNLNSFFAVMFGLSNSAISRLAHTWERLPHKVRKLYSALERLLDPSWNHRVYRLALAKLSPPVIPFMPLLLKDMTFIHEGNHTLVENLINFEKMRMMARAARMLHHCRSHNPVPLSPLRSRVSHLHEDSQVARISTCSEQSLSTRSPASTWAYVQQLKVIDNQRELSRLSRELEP

PKA-IIα = target: T3, PKA-IIα (Homo sapiens, UniProt P13861); assay: PKA activity assay, PKA-IIα; format: biochemical; details: for EC50: read-out: Kact; for A (PKA activity): PKAIIα
T3 construct: made in house
T3 sequence (P13861 whole entry): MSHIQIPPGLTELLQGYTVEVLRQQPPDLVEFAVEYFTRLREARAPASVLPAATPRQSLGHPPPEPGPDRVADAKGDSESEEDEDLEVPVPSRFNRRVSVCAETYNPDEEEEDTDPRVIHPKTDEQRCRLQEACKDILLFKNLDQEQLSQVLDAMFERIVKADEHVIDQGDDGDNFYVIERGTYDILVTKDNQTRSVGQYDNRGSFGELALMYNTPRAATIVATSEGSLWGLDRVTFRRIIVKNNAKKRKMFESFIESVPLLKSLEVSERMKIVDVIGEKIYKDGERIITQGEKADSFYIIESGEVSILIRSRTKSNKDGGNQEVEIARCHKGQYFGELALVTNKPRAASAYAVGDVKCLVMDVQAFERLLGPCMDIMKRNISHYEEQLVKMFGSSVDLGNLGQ
Protocol: The recombinant human PKA catalytic subunit (Cα1) and the four human PKA regulatory subunits (RIα, RIβ, RIIα, RIIβ) were expressed, purified, and characterized as described. […] PKA holoenzymes were formed by mixing the R- and C-subunit at a molar ratio of 1.2:1 and extensive dialysis against 20 mM MOPS (pH 7.0), 150 mM NaCl, 2.5 mM β-mercaptoethanol, supplemented with 1 mM ATP and 10 mM MgCl2 for PKA-I at 4°C overnight. PKA holoenzymes were used at about 20 nM for the activation assay. The apparent activation constants (Kact) were determined by fitting the concentration-dependent activity to a sigmoid dose-response model.

Compound	rel. RapGTP (Epac1 [1])	AC50 (Epac1 [2]) [µM]	EC50 (PKA-IIα; PKA-IIα) [µM]	A (PKA activity) (PKA-IIα; concentration 1 μM) [U/mg]	A (PKA activity) (PKA-IIα; concentration 1.00E+01 μM) [U/mg]	A (PKA activity) (PKA-IIα; concentration 1.00E+03 μM) [U/mg]	A (PKA activity) (PKA-IIα; concentration 1.00E-01 μM) [U/mg]	A (PKA activity) (PKA-IIα; concentration 1.00E-02 μM) [U/mg]	A (PKA activity) (PKA-IIα; concentration 1.00E-03 μM) [U/mg]	A (PKA activity) (PKA-IIα; concentration 1.00E-04 μM) [U/mg]	A (PKA activity) (PKA-IIα; concentration 1.00E-05 μM) [U/mg]	A (PKA activity) (PKA-IIα; concentration 2.50E+02 μM) [U/mg]	A (PKA activity) (PKA-IIα; concentration 5.00E+01 μM) [U/mg]	A (PKA activity) (PKA-IIα; concentration 5.00E+02 μM) [U/mg]	activation of Epac1 in cells (Epac1 [1])	A (PKA activity) (PKA-IIα; concentration 2.50E-01 μM) [U/mg]	A (PKA activity) (PKA-IIα; concentration 2.50E-02 μM) [U/mg]	also measured
Nc1ncnc2c1nc(Sc1ccc(Cl)cc1)n2[C@@H]1O[C@@H]2COP(=O)(O)O[C@H]2[C@H]1O [L-026, 8-pCPT-cAMP]	1.1255	0.9																
COC1C2OP(=O)(O)OCC2OC1n1c(Sc2ccc(Cl)cc2)nc2c(N)ncnc21 [D-007, 8-pCPT-2′-O-Me-cAMP, reference compound]	1.65	1.8	> 70	7.998	1.14E+01	1.97E+01	4.917	4.453	5.045	4.937	3.782	1.57E+01	1.39E+01	1.77E+01	strongly activated			A (PKA activity) (PKA-IIα; concentration […]): 9.518 U/mg
Cc1ccc(CSc2nc3c(N)ncnc3n2[C@@H]2O[C@@H]3CO[P@](O)(=S)O[C@H]3[C@H]2O)cc1 [S-230, Sp-8-pMeBnT-cAMPS]				8.2345	1.22E+01	2.30E+01	5.026	4.542		5.243	3.782	1.76E+01	1.58E+01	2.11E+01				A (PKA activity) (PKA-IIα; concentration 5 μM): 1.10E+01 U/mg
Nc1ncnc2c1nc(SCc1ccccc1)n2[C@@H]1O[C@@H]2CO[P@](O)(=S)O[C@H]2[C@H]1O [S-220, Sp-8-BnT-cAMPS]	0.6097		0.27	1.74E+01	2.30E+01		1.09E+01	5.815	5.193	4.739	3.782	2.28E+01			only minor effects	1.40E+01	8.017	Kact compared to cAMP (times higher / affinity reduced) (PKA-IIα; PKA-IIα): three to eight times higher
Nc1ncnc2c1ncn2C1OC2COP(O)(=S)OC2C1O (stereo not drawn) [S-000, Sp-cAMPS]		90																Rel. kmax (Epac1 [2]): 1.4^c
Nc1ncnc2c1ncn2[C@@H]1O[C@@H]2COP(=O)(O)O[C@H]2[C@H]1O [cAMP, reference compound]			0.08	2.29E+01	2.43E+01		1.58E+01	7.553	5.677	5.697	3.782	2.55E+01				1.90E+01	1.02E+01	A (PKA activity) (PKA-IIα; concentration 1.00E+02 μM): 2.52E+01 U/mg
